Source: ChEMBL document CHEMBL3886147 (2015)
Values joined by “and” are separate entries in the source; they are usually repeats but may differ in a detail not shown here. Identical values can stand only once.

Columns and labels:
Beta-lactamase = Beta-lactamase (Escherichia coli K-12, UniProt P00811); test: (§1) Assays are performed with beta -lactamases expressed in the pET system (Novagen, San Diego, Calif.) without signal peptides. They contain an N-terminal hexa-Histidine tag that is used for purification on Ni-NTA (Qiagen, Hilden, Germany). The compounds are prepared as 50 mM stocks in DMSO and diluted into buffer P1 (50 mM phosphate, pH 7) to a final concentration of 10% DMSO. All further dilutions are done in P2 (P1 with 10% DMSO). Enzyme and compound dilutions are pre-incubated for 10 min at 37 C. and the reaction is started with the addition of pre-warmed (37 C.) nitrocefin at a final concentration of […]. The change in absorption at 490 nm is followed at 37 C. for 10 min with 30 s intervals.
Beta-lactamase TEM = Beta-lactamase TEM (Bacteria, UniProt P62593); test: as §1
Beta-lactamase TEM, sequence (P62593 whole entry): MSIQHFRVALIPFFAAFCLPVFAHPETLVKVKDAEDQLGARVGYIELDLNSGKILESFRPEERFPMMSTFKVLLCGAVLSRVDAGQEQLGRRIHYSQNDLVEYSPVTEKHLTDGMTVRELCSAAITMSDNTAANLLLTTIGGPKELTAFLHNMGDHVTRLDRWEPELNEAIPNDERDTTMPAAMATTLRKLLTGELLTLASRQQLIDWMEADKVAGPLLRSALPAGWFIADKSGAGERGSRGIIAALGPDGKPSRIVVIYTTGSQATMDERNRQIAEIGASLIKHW

Beta-lactamase, sequence (P00811 whole entry): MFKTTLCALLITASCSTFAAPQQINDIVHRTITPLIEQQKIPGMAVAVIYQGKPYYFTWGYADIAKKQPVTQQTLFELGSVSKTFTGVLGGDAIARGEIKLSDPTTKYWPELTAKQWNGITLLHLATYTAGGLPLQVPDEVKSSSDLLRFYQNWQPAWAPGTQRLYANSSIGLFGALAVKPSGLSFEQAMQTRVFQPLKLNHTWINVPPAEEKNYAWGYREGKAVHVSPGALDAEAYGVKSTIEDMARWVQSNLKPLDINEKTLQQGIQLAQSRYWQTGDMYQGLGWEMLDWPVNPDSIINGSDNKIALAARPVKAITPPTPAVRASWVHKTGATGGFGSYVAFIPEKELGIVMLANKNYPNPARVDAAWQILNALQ

`[N-]=[N+]=NCC1C/C(=C2\O[C@@H]3CC(=O)N3C2C(=O)OCc2ccccc2)C(=O)O1` (stereo not given in full) showed an IC50 (Beta-lactamase) of 0.305 µM.

`COC(=O)C1/C(=C2/CC(CI)OC2=O)O[C@@H]2CC(=O)N12` (stereo not given in full) was tested, and the IC50 (Beta-lactamase TEM) was 0.0035 µM and the IC50 (Beta-lactamase) was 0.126 µM.

In the case of `CC1CC(=C2O[C@@H]3CC(=O)N3C2C(=O)O)C(=O)O1` (single isomer, unassigned), the IC50 (Beta-lactamase) is reported as 6.08 µM.

In the case of `CC1C/C(=C2\O[C@@H]3CC(=O)N3C2C(=O)OCc2ccccc2)C(=O)O1` (single isomer, unassigned), the IC50 (Beta-lactamase) is reported as 1.07 µM and 0.301 µM.
